Test results: patent publication US20260327250A1, “3-ETHYLAMINO-INDOLE DIMERS AS SEROTONERGIC AGENTS USEFUL FOR THE TREATMENT OF DISORDERS RELATED THERETO” (MINDSET PHARMA INC., priority 2022, published 2026)
Where a name gives a salt, the structure may show the parent alone.

Assays:
[1] = biological target: T1, human 5-hydroxytryptamine receptor 1A (5-HT1A) (Homo sapiens, UniProt P08908); test: Human 5-HT1A functional FLIPR assay (agonist mode); format: cell-based; conditions: footnote: Curve fitting with activation (%) @ 10 mM with RFU
T1 construct: expressed in transfected cells; host or cells: HTR1A&Ga15-CHO
T1 sequence (P08908 1-422): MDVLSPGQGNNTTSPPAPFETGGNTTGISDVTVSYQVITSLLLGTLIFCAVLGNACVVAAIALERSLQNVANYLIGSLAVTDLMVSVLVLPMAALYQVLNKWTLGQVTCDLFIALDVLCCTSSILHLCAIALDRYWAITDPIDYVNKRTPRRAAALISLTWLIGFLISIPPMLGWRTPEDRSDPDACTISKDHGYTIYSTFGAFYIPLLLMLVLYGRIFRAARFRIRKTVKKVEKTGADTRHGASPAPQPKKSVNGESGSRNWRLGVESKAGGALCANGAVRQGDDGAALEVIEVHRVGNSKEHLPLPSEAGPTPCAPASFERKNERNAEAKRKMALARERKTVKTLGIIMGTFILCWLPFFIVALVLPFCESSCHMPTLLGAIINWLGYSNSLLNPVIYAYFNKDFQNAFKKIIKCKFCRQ
Description: The potential excitatory effects of compounds targeting on 5-hydroxytryptamine receptor 1A under agonist mode was assessed.
HTR1A&Ga15-CHO cells were cultured in DMEM/F12 medium containing 10% dialyzed FBS, 1× penicillin-streptomycin and 600 μg/mL Hygromycin B. The cells were passaged about three times a week, maintained between […] confluence.
• 1. The cell culture medium (DMEM/F12 medium containing 10% dialyzed FBS, 1× penicillin-streptomycin and 600 μg/mL Hygromycin B), TrypLE™ Express and DPBS was warmed to R.T. in advance. • 2. The cell culture medium was removed from the flask. The cells were washed with DPBS. • 3. 1 mL TrypLE™ Express was added to the flask, mixed well by gentle shaking and then cells were incubated at 37° C. for a few minutes. • 4. The cells morphological change was checked under microscope, and the digestion stopped by adding 2 mL cell culture medium to the flask when most of cells turned to round. • 5. The cell suspension was transferred into a 15 mL centrifuge tube, and then centrifuged at 1,200 rpm for 5 minutes. • 6. The supernatant was removed. The cell pellet was resuspended with 2 mL cell culture medium. • 7. The cell density was counted using cell counter. Only cells with >85% viability were used for the assay. • 8. The cells were diluted to 4×10^5/mL with cell culture medium. • 9. 30 μL/well cell suspensions were added into a 384-well cell plate (The cell density was 12,000 cells/well). • 10. The cell plate was incubated overnight at 37° C., 5% (v/v) CO2. 3.3 Cell handling • 1. On the day of experiments, culture medium was removed from the cell plate. • 2. 10 μL of assay buffer (20 mM HEPES, in 1× HBSS, pH 7.4) was added to each well of the cell plate. • 3. 2× dye solution was prepared following the manufacture's instruction of the FLIPR® Calcium 6 assay kit: • i. The dye was diluted with assay buffer. • ii. Probenecid was added to the final concentration of 5 mM. • iii. Vigorously vortex for 1-2 minutes, and pH was adjusted to 7.4. • 4. 10 μL of 2× dye solution was added to each well of the cell plate. • 5. The cell plate was placed on plate shaker, followed by shaking at 600 rpm for 2 minutes. • 6. The plate at 37° C. was incubated for 2 hours followed by an additional 15-minute incubation at 25° C.
• 1. Serotonin was prepared to the concentration of 10 mM with DMSO, 3-folds serial dilutions were performed with DMSO. • 2. The test compounds were prepared to the concentration of 10 mM with DMSO, 3-folds serial dilutions were performed with DMSO. • 3. The compounds were added to a 384-well compound source plate. • 4. 90 nL/well of serial diluted compounds were transferred from source plate to a 384-well compound plate by using an Echo. • 5. 30 μL/well of assay buffer was added to the compound plate. • 6. The plate-on-plate shaker was mixed for 2 minutes.
• 1. After the cells had incubated with dye solution, the cell plate, compound plate containing 3×compounds and FLIPR tips were placed into FLIPR. • 2. 10 μL of 3×compounds were transferred from the compound plate to the cell plate by FLIPR. • 3. The plate was read for 160 sec with 1 sec interval to obtain the data of agonist mode.
• 1. The normalized fluorescence reading (RFU) was calculated as shown below, wherein Fmax and Fmin stand for maximum and minimum of calcium signal during defined time window:
2. EC50 was calculated by fitting RFU against log of compound concentrations with Hill equation using XLfit.

in vitro = conditions: human, microsomes
Description: The concentrations of parent compounds in reaction systems were evaluated by LC-MS/MS for estimating the stability in pooled human, male rat and male mouse liver microsomes. The in vitro intrinsic clearances of test compounds were determined as well. Protocol
A master solution in the “Incubation Plate” containing phosphate buffer, ultra-pure H2O, MgCl2 solution and liver microsomes was made according to Table 6. The mixture was pre-warmed at 37° C. water bath for 5 minutes.
The reaction was started with the addition of 4 μL of 200 μM exemplary test compounds of the application or control compounds to each master solution to get the final concentration of 2 μM. This study was performed in duplicate.
Aliquots of 50 μL were taken from the reaction solution at 0, 15, 30, 45 and 60 minutes. The reaction solutions were stopped by the addition of 4 volumes of cold methanol with IS (100 nM alprazolam, 200 nM imipramine, 200 nM labetalol and 2 μM ketoprofen). Samples were centrifuged at 3,220 g for 40 minutes. Aliquot of 90 μL of the supernatant was mixed with 90 μL of ultra-pure H2O and then was used for LC-MS/MS analysis.
All calculations were carried out using Microsoft Excel. Peak area ratios of test compound to internal standard (listed in the below table) were determined from extracted ion chromatograms.
All calculations were carried out using Microsoft Excel. Peak areas were determined from extracted ion chromatograms. The slope value, k, was determined by linear regression of the natural logarithm of the remaining percentage of the parent drug vs. incubation time curve.
The in vitro half-life (in vitro t½) was determined from the slope value:
Conversion of the in vitro t½ (min) into the in vitro intrinsic clearance (in vitro CLint, in μL/min/mg proteins) was done using the following equation (mean of duplicate determinations):

[2] = Remaining Percentage after 60 min, human liver microsomes, with cofactors

Structure (SMILES): CC(C)N(CCc1c[nH]c2cccc(O)c12)C(C)C [Compound 7]
- RFU@10 μM [1]: 74 RFU

Structure (SMILES): CN(C)CCc1c[nH]c2cccc(OC(=O)CCCC(=O)Oc3cccc4[nH]cc(CCN(C)C)c34)c12 [Compound I-24, Bis(3-(2-(dimethylamino)ethyl)-1H-indol-4-yl) glutarate]
- RFU@10 μM [1]: 169 RFU
- half-life at 2 µM (in vitro): 4.94 min
- microsomal CLint at 2 µM (in vitro): 281 µL/min/mg
- remaining at 1 h, 2 µM (in vitro; [2]): 0%
- remaining at 1 h, 2 µM (in vitro; Remaining Percentage after 60 min, human liver microsomes, without cofactors): 1.08%

Structure (SMILES): CC(C)N(CCc1c[nH]c2cccc(OC(=O)CCCC(=O)Oc3cccc4[nH]cc(CCN(C(C)C)C(C)C)c34)c12)C(C)C [Compound I-37, Bis(3-(2-(diisopropylamino)ethyl)-1H-indol-4-yl) glutarate dihydrochloride]
- RFU@10 μM [1]: 62 RFU
- half-life at 2 µM (in vitro): < 4.51 min
- microsomal CLint at 2 µM (in vitro): > 307 µL/min/mg
- remaining at 1 h, 2 µM (in vitro): 0%

Structure (SMILES): CN(C)CCc1c[nH]c2cccc(O)c12 [Psilocin, 4-hydroxy-N,N-dimethyltryptamine, reference compound]
- RFU@10 μM [1]: 140 RFU
- remaining at 1 h, 2 µM (in vitro; [2]): 70.2%

Structure (SMILES): CN(C)CCc1c[nH]c2cccc(OP(=O)(O)O)c12 [Psilocybin]
- RFU@10 μM [1]: 143 RFU
